Source: EP2860184A1, “Dihydrogenphosphate salt of Tenofovir disoproxil” (Zentiva, k.s., priority 2013, dated 2015)
Counter-ions that a name gives are not always drawn.

Assays:
[1] = API solid form change during drug product manufacture (wet granulation); format: physicochemical
Text: Moreover, we observed partial the conversion (about 30 %) of Tenofovir disoproxil fumarate (Formula II) in Tenofovir disoproxil hemifumarate (Formula III) during our formulation trials using wet granulation process.
Diffraction patterns were obtained with laboratory X'PERT PRO MPD PANalytical diffractometer, radiation used CuKα (λ = 1.542/Å). Generator settings: excitation voltage 45 kV, anodic current 40 mA. Scan description: scan type - gonio, measurement range 2 - 40º 2θ, step size 0.01º 2θ, step time: 0.5 s. Samples were measured as received on Si plate (zero background holder). Incident beam optics: programmable divergence slits (irradiated length 10 mm), 10 mm mask, 1/4º anti-scatter fixed slit, 0.02 rad Soller slits. Diffracted beam optics: X'Celerator detector, scanning mode, active length 2.122º, 0.02 rad Soller slits, anti-scatter slit 5.0 mm, Ni filter.
Tenofovir disoproxil dihydrogenphosphate (300 g), lactose monohydrate (206 g), microcrystalline cellulose (Avicel pH 101; 50 g), croscarmellose sodium (30 g), polyvinylpyrolidone K-25 (20 g) and magnesium stearate (10 g) were sieved. The mixture was loaded to high shear granulator. Purified water (150 ml) was sprayed on the blend in short time intervals and the mixture was kneaded to granules. The wet granules were dried in an oven at 60°C. The dried granules were milled and sieved. […]

[2] = in the presence of increased humidity and/or temperature; cited from earlier work
[3] = Chemical stability stress test (HPLC purity before and after); format: physicochemical; settings: for Starting HPLC purity (%): before the stress test; for HPLC purity (%) after the stress test: stress conditions: 80°C for 46 hours, 2760 min
Procedure: Physico-chemical properties (stability and solubility) of Tenofovir disoproxil dihydrogenphosphate were compared with other known salts (Tenofovir disoproxil fumarate, citrate, succinate, L-tartrate, D-tartrate, maleate) prepared according to published procedures. Table 2: Chemical stability of Tenofovir disoproxil and its salts (stress conditions: 80°C for 46 hours)
Column: Zorbax Eclipse XDB C18 RRHD, 100 x 3.0 mm (I.D.) x 1.8 um (Agilent), Run Time: 11.5 min., Injection Volume: 2 µl, Mobile Phase: MFA: 10mM K2HPO4 pH=7,0; MFB: ACN; MFA: 90-40-40-90; t: 0-7-9-9,5; F: 0,5 ml/min; 35°C

[4] = Apparent solubility and dissolution rate of the salts (Figure 3); format: physicochemical; settings: compared with other salts, including Tenofovir disoproxil fumarate
Text: The active substance solubility is important for bioavailability of the drug.
• Figure 1: DSC of Tenofovir disoproxil dihydrogenphosphate • Figure 2: 1H NMR of Tenofovir disoproxil dihydrogenphosphate • Figure 3: The apparent solubility and dissolution rate of Tenofovir disoproxil salts • Figure 4: Typical HPLC chromatogram of Tenofovir disoproxil dihydrogenphosphate prepared from Tenofovir disoproxil base • Figure 5: SEM images of Tenofovir disoproxil dihydrogenphosphate prepared from Tenofovir disoproxil • Figure 6: Typical HPLC chromatogram of Tenofovir disoproxil dihydrogenphosphate prepared from Tenofovir disoproxil fumarate • Figure 7: SEM images of Tenofovir disoproxil dihydrogenphosphate prepared from Tenofovir disoproxil fumarate

| SMILES | conversion in Tenofovir disoproxil hemifumarate ([1]; formulation trials using wet granulation process) | Starting HPLC purity (%) [3] [%] | HPLC purity (%) after the stress test [3] [%] | Solubility [4] | changes in API solid form ([1]; manufacturing of a drug product) | solid form conversion [2] | Chemical stability compared with other salts ([3]; compared with fumarate, citrate, succinate, L-tartrate, D-tartrate, maleate, 80°C for 46 hours) |
| --- | --- | --- | --- | --- | --- | --- | --- |
| CC(C)OC(=O)OCOP(=O)(CO[C@H](C)Cn1cnc2c(N)ncnc21)OCOC(=O)OC(C)C [Tenofovir disoproxil fumarate] | about 30% | 99.81 | 4.08 | – | – | converts into Tenofovir disoproxil hemifumarate | – |
| CC(C)OC(=O)OCOP(=O)(CO[C@H](C)Cn1cnc2c(N)ncnc21)OCOC(=O)OC(C)C [Tenofovir disoproxil D-tartrate] | – | 99.66 | 25.51 | – | – | – | – |
| CC(C)OC(=O)OCOP(=O)(CO[C@H](C)Cn1cnc2c(N)ncnc21)OCOC(=O)OC(C)C [Tenofovir disoproxil (free base), 9-[-2-(R)-[[bis[[(isopropoxycarbonyl)oxy]methoxy]phosphinoyl]methoxy]propyl] adenine] | – | 95.66 | 6.13 | – | – | – | – |

Continued, in another order:

| conversion in Tenofovir disoproxil hemifumarate ([1]; formulation trials using wet granulation process) | Starting HPLC purity (%) [3] [%] | HPLC purity (%) after the stress test [3] [%] | Solubility [4] | changes in API solid form ([1]; manufacturing of a drug product) | SMILES | solid form conversion [2] | Chemical stability compared with other salts ([3]; compared with fumarate, citrate, succinate, L-tartrate, D-tartrate, maleate, 80°C for 46 hours) |
| --- | --- | --- | --- | --- | --- | --- | --- |
| – | 99.66 | 97.69 | superior to other salts | no changes in API solid form | CC(C)OC(=O)OCOP(=O)(CO[C@H](C)Cn1cnc2c(N)ncnc21)OCOC(=O)OC(C)C [Tenofovir disoproxil dihydrogenphosphate] | – | the most stable salt of Tenofovir disoproxil |
| – | 98.10 | 21.12 | – | – | CC(C)OC(=O)OCOP(=O)(CO[C@H](C)Cn1cnc2c(N)ncnc21)OCOC(=O)OC(C)C [Tenofovir disoproxil L-tartrate] | – | – |
| – | 99.04 | 54.16 | – | – | CC(C)OC(=O)OCOP(=O)(CO[C@H](C)Cn1cnc2c(N)ncnc21)OCOC(=O)OC(C)C [Tenofovir disoproxil succinate] | – | – |
